According to patent publication US20030181376A1, “Control of crop pests & animal parasites through direct neuronal uptake” (priority 2000, published 2003):
Like-named read-outs stand apart in the source and are kept apart here.

Experiments:
Format in all cases: in vivo
[1] = tested on: Heterodera glycines; experiment: Behavioural bioassay: orientation of H. glycines juveniles to an attractant disc (root exudate) after pre-incubation; conditions: for EC50: read-out: concentration giving 50% reduction in attraction of H. glycines to an attractant
Method: This assay was modified from that used by Grundler et al (Parasitology 103, 149-155; 1991). Soybean plants were grown in pots containing perlite in a tropical glasshouse until the root system was well established. Plants were carefully washed free of the perlite in running water and then several plants were placed in 200 cm3 dH2O in a conical flask which was covered in foil to keep light off the roots and then incubated in a Sanyo plant growth cabinet (16 hr light 24° C., 8 hr dark 20° C.) for 48hrs. The root exudate was collected and filter sterilised through 0.45 μm syringe filter.
Agarose discs covered in either dH2O or root exudate were made as follows. Agarose (3 ml, 1.5% solution made in dH2O) was poured into 6 cm petri dishes and allowed to surface dry. One ml of root exudate or dH2O was pipetted onto the plates, the surface covered by swirling and then left to completely evaporate. A cork borer was used to cut out 6 mm discs from the plate.
The oxime carbamate nematicide Aldicarb was obtained by putting 1 g Temik (10G, Rhône-Poulenc), in 10 ml chloroform to dissociate the oxime carbamate from its inert carrier. After 1 hour particulate material was removed by centrifugation. 100, 10 or 1 μl aliquots of the chloroform/aldicarb solution were pipetted into 1.5 ml microtubes and left to evaporate in a fume hood. This leaves 1, 0.1 and 0.01 mg aldicarb respectively in each tube. Addition of 1 ml dH2O to these tubes provides solutions of […] respectively.
Aliquots of juveniles of H. glycines were incubated for 16 hours in a range of concentrations of aldicarb, or in peptides generated that recognise the same acetylcholinesterase (AChE) target as aldicarb (see example IV). The effect of different concentrations of aldicarb or peptides on chemoreception was measured. Control worms were incubated in either water or PBS for the peptide experiments.
Treated nematode juveniles (approximately 300) in small volumes (typically 20 μl) dH2O were placed in the centre of 3.5 cm diameter petri dishes containing 1.5 ml 1.5% agarose. After evaporation of the water the worms were left for 1 hour to randomly distribute over the plate. A root exudate and a water agarose test disc were placed onto the plate equally spaced (5 mm) from the centre. The plates were left for 1 hour at room temperature in the dark. The experiments were carried out in replicates of 8-10 per concentration of aldicarb or peptide assayed. Controls in which nematodes were not treated with any chemical or peptide mimetic were also used for each experimental day to obtain a 100% rate of attraction. This allowed measurements of the extent of chemoattraction mediated by a test compound on any day.
The number of worms under each disc was counted using a dissecting microscope. In control experiments typically 2-4 times as many worms were counted under the root exudate disc as were under the water control disc. The numbers of responders minus the number under the control disc was used to calculate a response. With ˜300 animals on the plate the difference was around 40-80. The difference between the numbers under the attractant and the control discs was used to define the maximum response on that day of experiments.
Various concentrations of these compounds were tested with a modified bioassay. The data sets were analysed using probit analysis within a standard statistical package (SPSS) installed on a personal computer. […] Even higher concentrations of aldicarb and both AChE binding peptides were needed to inhibit movement than required to disrupt chemoreception.
Freshly hatched H. glycines were incubated for 16 hours at room temperature in various concentrations of Levamisole. They were tested using the bioassay in example 3.

[2] = tested on: Globodera pallida; experiment: Behavioural bioassay: orientation of G. pallida to an attractant disc (50 mM ZnCl2) after pre-incubation; conditions: 16 h pre-treatment at 1.242×10^−8 M
Method: (§1) The number of worms under each disc was counted using a dissecting microscope. […] The numbers of responders minus the number under the control disc was used to calculate a response. […] The difference between the numbers under the attractant and the control discs was used to define the maximum response on that day of experiments.
(§2) 50 mM CaCl2 was used as an attractant with the agarose discs. Those assays were carried out at 27° C. […] The peptide was also tested against the potato cyst nematode Globodera pallida using the same methods as described for H. glycines. G. pallida was incubated for 16 h in a solution containing the constrained peptide at 1.242×10^−8 M at room temperature. […]

[3] = tested on: Heterodera glycines and Globodera pallida; experiment: Behavioural bioassay, pooled data of H. glycines and G. pallida after pre-incubation in levamisole mimetic peptide; conditions: 16 h pre-treatment at 1×10^−6 M; data of two species pooled; values>1 indicate a chemoreceptive response
Method: as §1, §2

[4] = incubation for 16 hours, probit analysis

Compound: CNC(=O)O/N=C/C(C)(C)SC [aldicarb, Aldicarb]
- disruption of chemosensory attraction relative to paralysis ([1]; H. glycines, 16 hours incubation): disrupt chemosensory attraction completely at concentrations lower than those which cause paralysis
- EC50 ([1]; Heterodera glycines, 16 h): 0.0011 ± 0.00306 nM

Compound: CSINWRHHC [constrained 7 mer peptide]
- EC50 [1, 4]: 2.16 nM
- mean value ratio of nematodes under the disc with the attractant rather than without it ([2]; room temperature, bioassay at 20° C., 50 mM ZnCl2, values>1 indicate a chemoreceptive response): 0.77±0.08
- ratio of nematodes under attractant disc versus control disc, 3 hours after the start of the bioassay ([2]; 3 hours after start of the bioassay): 0.78±0.06

Compound: CTTMHPRLC
- mean value ratio of nematodes under the disc with the attractant rather than without it [3]: 1.03±0.11
- ratio of nematodes under attractant disc versus control disc, 3 hours after the start of the bioassay ([1]; H. glycines, 16 h pre-treatment at 1×10^−6 M, 3 hours after start of the bioassay): 1.24±0.11

Compound: SVSVGMKPSPRP [linear 12 mer peptide]
- EC50 [1, 4]: 3680 nM

Compound: c1ccc([C@H]2CN3CCSC3=N2)cc1 [Levamisole]
- signs of paralysis ([1]; 16 hours at room temperature in various concentrations): did not show any signs of paralysis
- inhibition of chemoreception ([1]; 16 hours at room temperature in various low concentrations, FIG. 5): inhibit chemoreception in a dose-dependent manner

Compound: CHNSHIRWC [control peptide]
- loss of chemoreception ([1]; incubation at 2 μM): no loss of chemoreception
